The text below walks through data of ChEMBL document CHEMBL3877327, “Activation of anti-oxidant Nrf2 signaling by substituted trans stilbenes” (Bioorg Med Chem, 2017).

Assay [1] concerns the target T1, Nuclear factor erythroid 2-related factor 2 (Homo sapiens) (UniProt Q16236).
T1 sequence (whole entry): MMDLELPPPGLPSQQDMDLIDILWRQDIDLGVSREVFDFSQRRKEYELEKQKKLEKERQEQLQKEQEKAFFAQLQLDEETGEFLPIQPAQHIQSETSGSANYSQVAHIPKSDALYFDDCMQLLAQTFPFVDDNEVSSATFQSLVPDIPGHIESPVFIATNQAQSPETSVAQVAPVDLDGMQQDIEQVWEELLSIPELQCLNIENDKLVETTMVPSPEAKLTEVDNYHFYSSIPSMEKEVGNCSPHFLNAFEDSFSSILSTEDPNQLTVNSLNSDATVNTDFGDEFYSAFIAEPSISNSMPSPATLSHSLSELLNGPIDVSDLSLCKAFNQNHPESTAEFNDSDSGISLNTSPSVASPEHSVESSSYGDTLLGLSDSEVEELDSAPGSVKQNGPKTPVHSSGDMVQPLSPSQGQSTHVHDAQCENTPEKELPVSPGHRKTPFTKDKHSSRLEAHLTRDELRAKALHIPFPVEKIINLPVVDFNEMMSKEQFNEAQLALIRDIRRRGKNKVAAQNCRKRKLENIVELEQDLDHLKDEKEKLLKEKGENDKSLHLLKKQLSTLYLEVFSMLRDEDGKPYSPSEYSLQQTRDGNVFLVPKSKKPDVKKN
The experiment in a line: Activation of Nrf2 (unknown origin) expressed in human HepG2 cells after 5 hrs by ARE-driven luciferase reporter gene assay relative to control. In kind it is cell-based. A general note: In a reporter assay the amount or activity of a reporter protein is the signal.

In assay [2] the target is T1, Nuclear factor erythroid 2-related factor 2 (Homo sapiens). The experiment in a line: Activation of Nrf2 (unknown origin) expressed in human HepG2 cells at 15 uM after 5 hrs by ARE-driven luciferase reporter gene assay relative to control. In kind it is cell-based.

As to `COc1cccc(/C=C/c2ccccc2OC)c1`, the fold change (FC) in assay [1] worked out at 29.2.

As for `Fc1cccc(/C=C/c2cccc(F)c2)c1`, the fold change (FC) in assay [1] is 7.

On to `Fc1ccc(/C=C/c2ccc(F)c(F)c2)cc1`, for which the fold change (FC) in assay [2] was found to be 7. In assay [1], `COc1ccc(/C=C/c2cccc([N+](=O)[O-])c2)cc1` displayed a fold change (FC) of 69. For the compound `COc1cccc(/C=C/c2ccc(C(F)(F)F)cc2)c1OC`, the fold change (FC) in assay [1] is 65.5. Compound `Cc1ccc(/C=C/c2ccccc2F)cc1` came in with a fold change (FC) in assay [1] of 10.1. As for `COc1ccc(/C=C/c2ccc(OC)cc2OC)cc1`, in assay [1], the fold change (FC) worked out at 15.6. Consider `COc1ccc(/C=C/c2cc(F)ccc2F)cc1`, for which, in assay [1], the fold change (FC) was 17. `Fc1cccc(/C=C/c2ccccc2F)c1`: in assay [2], the fold change (FC) stood at 8.5.

With `COc1ccc(/C=C/c2ccc(F)c(F)c2)cc1`, the fold change (FC) in assay [2] came to 4.6. Take `Cc1ccc(/C=C/c2cccc(C(F)(F)F)c2)cc1`: in assay [1], the fold change (FC) is 19.2. In the case of `COc1cccc(/C=C/c2cc(OC)ccc2OC)c1`, the fold change (FC) in assay [2] turned out to be 15.7.

In assay [1], `Cc1ccc(/C=C/c2ccc(F)cc2)cc1` showed a fold change (FC) of 1.1. Take `COc1ccc(/C=C/c2ccc(F)cc2)cc1`: the fold change (FC) in assay [1] amounted to 1.7. In assay [1], `Cc1ccc(/C=C/c2cccc(F)c2)cc1` had a fold change (FC) of 4.7. The same measure, in the same setting: the result for `Fc1ccccc1/C=C/c1ccccc1` reads 10.7.

Take `COc1cccc(/C=C/c2cccc(F)c2)c1`: the fold change (FC) in assay [1] turned out to be 15.1. In assay [2], `Fc1ccc(/C=C/c2ccccc2F)cc1F` came in with a fold change (FC) of 11.5.

`COc1ccc(OC)c(/C=C/c2ccc(OC)cc2OC)c1` yielded a fold change (FC) in assay [1] of 12.9. For `COc1cccc(/C=C/c2cccc(F)c2)c1OC`, the fold change (FC) in assay [1] came out at 19.4. Same read-out and setting: the result for `COc1ccc(/C=C/c2cccc(F)c2)cc1OC` reads 5.9; that for `Cc1ccc(/C=C/c2ccc(F)c(F)c2)cc1`, 10.2; that for `Fc1ccccc1/C=C/c1ccccc1F`, 13.9. For `COc1ccc(/C=C/c2ccccc2F)cc1`, the fold change (FC) in assay [1] was determined as 14.9. Compound `COc1cccc(/C=C/c2ccccc2)c1OC` yielded a fold change (FC) in assay [1] of 25.4. Still for that read-out and setting: the result for `Fc1cccc(F)c1/C=C/c1ccccc1` reads 11.4; that for `COc1ccc(/C=C/c2ccc(F)cc2)cc1OC`, 1.6. Compound `Oc1ccc(/C=C/c2ccccc2F)cc1` displayed a fold change (FC) in assay [1] of 13.4. Still for that read-out and setting: the same measure for `Fc1ccc(/C=C/c2cccc(F)c2)cc1`: 4.5. `Fc1cccc(/C=C/c2cc(F)ccc2F)c1` showed a fold change (FC) in assay [1] of 10.7. The compound `Fc1ccc(/C=C/c2ccccc2F)c(F)c1` gave a fold change (FC) in assay [1] of 5. On the same count and under the same terms, the same measure for `COc1ccccc1/C=C/c1ccccc1F`: 18.4; for `Fc1ccc(/C=C/c2cc(F)ccc2F)cc1`: 11.2.

Regarding `Oc1ccc(/C=C/c2cc(O)cc(O)c2)cc1`, the fold change (FC) in assay [1] was 3.2. In turn, `COc1ccccc1/C=C/c1ccccc1` gave a fold change (FC) in assay [1] of 23.1. The same measure, in the same setting: the same measure for `Fc1cccc(/C=C/c2ccccc2)c1`: 4.9. The compound `Cc1ccc(/C=C/c2ccc(F)cc2F)cc1` came in with a fold change (FC) in assay [1] of 13.5.

`O=[N+]([O-])c1cccc(/C=C/c2ccccc2)c1`: the fold change (FC) in assay [1] turned out to be 18.6. In turn, `COc1cccc(/C=C/c2ccc(F)cc2)c1OC` had a fold change (FC) in assay [1] of 16.9.

The compound `COc1ccc(/C=C/c2ccccc2Cl)cc1` had a fold change (FC) in assay [1] of 17.8. For `COc1ccc(/C=C/c2cccc(O)c2)cc1`, the fold change (FC) in assay [2] was 28.1. `C[S+]([O-])CCCCN=C=S` (stereo not drawn) yielded a fold change (FC) in assay [1] of 12.4. In assay [1], `Cc1ccc(/C=C/c2cccc([N+](=O)[O-])c2)cc1` gave a fold change (FC) of 11.9. Compound `Fc1cccc(/C=C/c2ccc(F)cc2F)c1` displayed a fold change (FC) in assay [1] of 8.2. For the compound `Fc1ccc(/C=C/c2ccccc2F)cc1`, the fold change (FC) in assay [1] came out at 12.7.

`Fc1ccc(F)c(/C=C/c2ccccc2F)c1` yielded a fold change (FC) in assay [1] of 22.3. As for `Fc1cccc(/C=C/c2ccc(F)c(F)c2)c1`, the fold change (FC) in assay [1] amounted to 12.2. The same measure, in the same setting: the result for `COc1cccc(/C=C/c2ccc(C)cc2)c1OC` reads 16.1; that for `COc1cccc(/C=C/c2ccc(C(C)C)cc2)c1OC`, 33.9. Turning to `Fc1ccc(/C=C/c2ccccc2)cc1`, the fold change (FC) in assay [1] was 4.8. On the same count and under the same terms, the same measure for `COc1ccc(/C=C/c2cccc(F)c2)cc1`: 3.6. In assay [1], `Fc1ccc(/C=C/c2ccc(F)cc2F)cc1` showed a fold change (FC) of 16.8. In turn, `COc1cccc(/C=C/c2ccccc2F)c1` registered a fold change (FC) in assay [1] of 14.4. On the same count and under the same terms, the result for `Fc1ccccc1/C=C/c1c(F)cccc1F` reads 21.2. `Fc1ccccc1/C=C/c1ccc(Cl)cc1`: the fold change (FC) in assay [1] is 5.3.

With `COc1ccc(OC)c(/C=C/c2ccc(F)cc2)c1`, in assay [1], the fold change (FC) amounted to 10.7.

On to `COc1cccc(/C=C/c2ccc(F)cc2)c1`, for which, in assay [1], the fold change (FC) stood at 4.4.

Turning to `COc1ccc(/C=C/c2ccc(O)c(OC)c2)cc1`, the fold change (FC) in assay [1] came out at 27.7.
